From patent publication US9737542B2, “Pyrrolotriazine kinase inhibitors” (BRISTOL-MYERS SQUIBB COMPANY, priority 2013, dated 2017) come the findings set out here.

Sequence of GST-Xa-hAAK1 (Q2M2I8 whole entry): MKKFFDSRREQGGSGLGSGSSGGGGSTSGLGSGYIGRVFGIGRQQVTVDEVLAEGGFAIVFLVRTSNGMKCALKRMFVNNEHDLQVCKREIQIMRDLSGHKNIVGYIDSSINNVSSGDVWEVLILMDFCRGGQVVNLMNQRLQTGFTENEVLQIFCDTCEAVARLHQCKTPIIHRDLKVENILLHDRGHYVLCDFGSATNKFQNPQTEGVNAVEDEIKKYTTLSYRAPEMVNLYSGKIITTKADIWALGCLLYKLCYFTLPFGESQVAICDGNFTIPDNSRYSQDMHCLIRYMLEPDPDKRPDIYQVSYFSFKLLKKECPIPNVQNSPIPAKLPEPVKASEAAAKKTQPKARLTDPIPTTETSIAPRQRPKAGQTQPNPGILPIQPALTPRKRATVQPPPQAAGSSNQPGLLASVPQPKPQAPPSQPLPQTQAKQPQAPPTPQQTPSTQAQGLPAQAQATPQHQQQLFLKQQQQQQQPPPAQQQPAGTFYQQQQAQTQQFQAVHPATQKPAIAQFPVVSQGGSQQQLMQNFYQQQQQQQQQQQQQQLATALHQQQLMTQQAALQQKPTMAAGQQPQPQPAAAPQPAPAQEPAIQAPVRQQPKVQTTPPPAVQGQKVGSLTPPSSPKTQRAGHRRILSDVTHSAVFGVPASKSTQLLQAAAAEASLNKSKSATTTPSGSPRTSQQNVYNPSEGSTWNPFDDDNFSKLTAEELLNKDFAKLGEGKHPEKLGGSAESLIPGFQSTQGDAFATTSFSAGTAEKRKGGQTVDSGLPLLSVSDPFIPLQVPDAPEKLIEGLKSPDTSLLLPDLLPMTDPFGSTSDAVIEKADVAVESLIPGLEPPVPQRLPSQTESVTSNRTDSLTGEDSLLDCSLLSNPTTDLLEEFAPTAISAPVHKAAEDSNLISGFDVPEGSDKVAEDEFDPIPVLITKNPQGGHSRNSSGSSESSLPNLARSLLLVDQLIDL

One assay concerns the target GST-Xa-hAAK1 (Homo sapiens (Human), UniProt Q2M2I8). In words: AAK1 Kinase Assay. It counts as biochemical. To be noted: ATP 22 μM; 3 hours at room temperature.
Method: The assays were performed in U-bottom 384-well plates. […] The reactions were initiated by the combination of bacterially expressed, GST-Xa-hAAK1 with substrates and test compounds. The reactions were incubated at room temperature for 3 hours and terminated by adding 60 μl of 35 mM EDTA buffer to each sample. The reactions were analyzed on the Caliper LabChip 3000 (Caliper, Hopkinton, Mass.) by electrophoretic separation of the fluorescent substrate and phosphorylated product. Inhibition data were calculated by comparison to EDTA quenched control reactions for 100% inhibition and vehicle-only reactions for 0% inhibition. […] Dose response curves were generated to determine the concentration required inhibiting 50% of kinase activity (IC50). Compounds were dissolved at 10 mM in dimethylsulfoxide (DMSO) and evaluated at eleven concentrations. IC50 values were derived by non-linear regression analysis.
In general, IC50 refers to the point on the concentration scale where inhibition reaches its midpoint. A higher IC50 goes with a need for much substance. In turn, `CC(C)n1nnc(-c2cc(O)cc(Nc3ncnn4ccc(CN5CCC(N)CC5)c34)c2)n1` [Example 36, 3-((5-((4-aminopiperidin-1-yl)methyl)pyrrolo[2,1-f][1,2,4]triazin-4-yl)amino)-5-(2-isopropyl-2H-tetrazol-5-yl)phenol] yielded an IC50 of 3.3 nM.
Same read-out and setting: as for `CC(C)c1nc(-c2ccc(Cl)c(Nc3ncnn4ccc(CN5CCC(N)CC5)c34)c2)no1` [Example 43, 5-((4-aminopiperidin-1-yl)methyl)-N-(2-chloro-5-(5-isopropyl-1,2,4-oxadiazol-3-yl)phenyl)pyrrolo[2,1-f][1,2,4]triazin-4-amine], the figure is 265 nM.
On the same count and under the same terms, for `CNC1CCN(Cc2ccn3ncnc(Nc4cc(F)cc(-c5noc(C(C)C)n5)c4)c23)CC1` [Example 44, N-(3-fluoro-5-(5-isopropyl-1,2,4-oxadiazol-3-yl)phenyl)-5-((4-(methylamino)piperidin-1-yl)methyl)pyrrolo[2,1-f][1,2,4]triazin-4-amine] the value was 10 nM.
On the same count and under the same terms, as for `CC(C)n1nnc(-c2cc(Nc3ncnn4ccc(CN5CCC(N)CC5)c34)ccc2F)n1` [Example 49, 5-((4-aminopiperidin-1-yl)methyl)-N-(4-fluoro-3-(2-isopropyl-2H-tetrazol-5-yl)phenyl)pyrrolo[2,1-f][1,2,4]triazin-4-amine], the figure is 21 nM.

Still in this assay, the particulars now being: ATP 22 μM; 3 hours at room temperature; listed as IC50 ranges.
`CC(C)CNC(=O)c1cccc(Nc2ncnn3ccc(CN4CCC(N)CC4)c23)c1` [Example 33, 3-((5-((4-aminopiperidin-1-yl)methyl)pyrrolo[2,1-f][1,2,4]triazin-4-yl)amino)-N-isobutylbenzamide] came in with a concentration for half-maximal inhibition (IC50) of 10 to 100 nM.
Same read-out and setting: for `CC(C)n1nnc(-c2cccc(Nc3ncnn4ccc(CN5CCNCC5)c34)c2)n1` [Example 34, N-(3-(2-isopropyl-2H-tetrazol-5-yl)phenyl)-5-(piperazin-1-ylmethyl)pyrrolo[2,1-f][1,2,4]triazin-4-amine] the value was 10 to 100 nM; for `CC(C)c1nnc(-c2cccc(Nc3ncnn4ccc(CN5CCNCC5)c34)c2)s1` [Example 35, N-(3-(5-isopropyl-1,3,4-thiadiazol-2-yl)phenyl)-5-(piperazin-1-ylmethyl)pyrrolo[2,1-f][1,2,4]triazin-4-amine], 100 to 1000 nM; for `CC(C)c1nc(-c2cc(O)cc(Nc3ncnn4ccc(CN5CCC(N)CC5)c34)c2)no1` [Example 37, 3-((5-((4-aminopiperidin-1-yl)methyl)pyrrolo[2,1-f][1,2,4]triazin-4-yl)amino)-5-(5-isopropyl-1,2,4-oxadiazol-3-yl)phenol], 1 to 10 nM.
Still for that read-out and setting: for `CC(C)n1nnc(-c2ccc(O)c(Nc3ncnn4ccc(CN5CCC(N)CC5)c34)c2)n1` [Example 38, 2-((5-((4-aminopiperidin-1-yl)methyl)pyrrolo[2,1-f][1,2,4]triazin-4-yl)amino)-4-(2-isopropyl-2H-tetrazol-5-yl)phenol] the value was 1 to 10 nM.
Still for that read-out and setting: as for `CNC1CCN(Cc2ccn3ncnc(Nc4cccc(-c5noc(C(C)C)n5)c4)c23)CC1` [Example 39, N-(3-(5-isopropyl-1,2,4-oxadiazol-3-yl)phenyl)-5-((4-(methylamino)piperidin-1-yl)methyl)pyrrolo[2,1-f][1,2,4]triazin-4-amine], the figure is 10 to 100 nM; as for `CNC1CCN(Cc2ccn3ncnc(Nc4cccc(-c5nnc(C(C)C)o5)c4)c23)CC1` [Example 40, N-(3-(5-isopropyl-1,3,4-oxadiazol-2-yl)phenyl)-5-((4-(methylamino)piperidin-1-yl)methyl)pyrrolo[2,1-f][1,2,4]triazin-4-amine], 10 to 100 nM.
On to `CNC1CCN(Cc2ccn3ncnc(Nc4cccc(-c5noc(C(C)(C)C)n5)c4)c23)CC1` [Example 41, N-(3-(5-(tert-butyl)-1,2,4-oxadiazol-3-yl)phenyl)-5-((4-(methylamino)piperidin-1-yl)methyl)pyrrolo[2,1-f][1,2,4]triazin-4-amine], for which the IC50 lay within 10 to 100 nM.
Consider `CNC1CCN(Cc2ccn3ncnc(Nc4cccc(-c5nnn(C(C)C)n5)c4)c23)CC1` [Example 42, N-(3-(2-isopropyl-2H-tetrazol-5-yl)phenyl)-5-((4-(methylamino)piperidin-1-yl)methyl)pyrrolo[2,1-f][1,2,4]triazin-4-amine], for which the IC50 fell in the range of 10 to 100 nM.
Compound `CC(C)c1nc(-c2cc(Cl)cc(Nc3ncnn4ccc(CN5CCC(N)CC5)c34)c2)no1` [Example 45, 5-((4-aminopiperidin-1-yl)methyl)-N-(3-chloro-5-(5-isopropyl-1,2,4-oxadiazol-3-yl)phenyl)pyrrolo[2,1-f][1,2,4]triazin-4-amine] displayed an IC50 of 10 to 100 nM.
As for `CC(C)c1nc(-c2cc(F)cc(Nc3ncnn4ccc(CN5CCC(N)CC5)c34)c2)no1` [Example 46, 5-((4-aminopiperidin-1-yl)methyl)-N-(3-fluoro-5-(5-isopropyl-1,2,4-oxadiazol-3-yl)phenyl)pyrrolo[1,2-f][1,2,4]triazin-4-amine], the IC50 is 10 to 100 nM.
Still for that read-out and setting: as for `NC1CCN(Cc2ccn3ncnc(Nc4cccc(-c5noc(C6CC6)n5)c4)c23)CC1` [Example 47, 5-((4-aminopiperidin-1-yl)methyl)-N-(3-(5-cyclopropyl-1,2,4-oxadiazol-3-yl)phenyl)pyrrolo[2,1-f][1,2,4]triazin-4-amine], the figure is 10 to 100 nM.
Same read-out and setting: for `CC(C)c1nnc(-c2cccc(Nc3ncnn4ccc(CN5CC[C@@H](N)[C@H](O)C5)c34)c2)s1` [Example 48, (3R,4R)-4-amino-1-((4-((3-(5-isopropyl-1,3,4-thiadiazol-2-yl)phenyl)amino)pyrrolo[2,1-f][1,2,4]triazin-5-yl)methyl)piperidin-3-ol] the value was 10 to 100 nM; for `CC(C)n1nnc(-c2ccc(F)c(Nc3ncnn4ccc(CN5CCC(N)CC5)c34)c2)n1` [Example 50, 5-((4-aminopiperidin-1-yl)methyl)-N-(2-fluoro-5-(2-isopropyl-2H-tetrazol-5-yl)phenyl)pyrrolo[2,1-f][1,2,4]triazin-4-amine], 100 to 1000 nM; for `CC(C)n1nnc(-c2cc(F)cc(Nc3ncnn4ccc(CN5CCC(N)CC5)c34)c2)n1` [Example 51, 5-((4-aminopiperidin-1-yl)methyl)-N-(3-fluoro-5-(2-isopropyl-2H-tetrazol-5-yl)phenyl)pyrrolo[2,1-f][1,2,4]triazin-4-amine], 1 to 10 nM.
For `CC(C)c1nc(-c2ccc(F)c(Nc3ncnn4ccc(CN5CCC(N)CC5)c34)c2)no1` [Example 52, 5-((4-aminopiperidin-1-yl)methyl)-N-(2-fluoro-5-(5-isopropyl-1,2,4-oxadiazol-3-yl)phenyl)pyrrolo[2,1-f][1,2,4]triazin-4-amine], the half-inhibitory concentration (IC50) is 100 to 1000 nM.
`CC(=O)NC1CCN(Cc2ccn3ncnc(Nc4cccc(-c5nnc(C(C)C)s5)c4)c23)CC1` [Example 53, N-(1-((4-((3-(5-isopropyl-1,3,4-thiadiazol-2-yl)phenyl)amino)pyrrolo[2,1-f][1,2,4]triazin-5-yl)methyl)piperidin-4-yl)acetamide] had a concentration for half-maximal inhibition (IC50) of 10 to 100 nM.
On the same count and under the same terms, for `CC(C)n1nnc(-c2cccc(Nc3ncnn4ccc(CN5CCN(C)CC5)c34)c2)n1` [Example 54, N-(3-(2-isopropyl-2H-tetrazol-5-yl)phenyl)-5-((4-methylpiperazin-1-yl)methyl)pyrrolo[2,1-f][1,2,4]triazin-4-amine] the value was 100 to 1000 nM.
